In US20190010167A1, “INHIBITORS OF THE MENIN-MLL INTERACTION” (Vitae Pharmaceuticals, Inc., priority 2015, published 2019):
Where a name gives a salt, the structure may show the parent alone.

Assays:
[1] = molecular target: T1, mutated menin / MLL-AF9 fusion protein (Homo sapiens, UniProt O00255); assay: AlphaLISA menin/MLL binding assay, mutated menin (Assay 1); conditions: biotinylated mutated menin 5 nM, MLL-AF9-FLAG lysate, read-out: Assay 1 Mutant Menin IC50
T1 construct: biotinylated (1) wild-type menin or (2) mutated menin (described in Nature (2012) Vol. 482, pp. 542-548); fused on or other part: Biotin attached chemically with Sulfo-NHS-Biotin; This is a label, not a fusion
T1 sequence (O00255 1-610): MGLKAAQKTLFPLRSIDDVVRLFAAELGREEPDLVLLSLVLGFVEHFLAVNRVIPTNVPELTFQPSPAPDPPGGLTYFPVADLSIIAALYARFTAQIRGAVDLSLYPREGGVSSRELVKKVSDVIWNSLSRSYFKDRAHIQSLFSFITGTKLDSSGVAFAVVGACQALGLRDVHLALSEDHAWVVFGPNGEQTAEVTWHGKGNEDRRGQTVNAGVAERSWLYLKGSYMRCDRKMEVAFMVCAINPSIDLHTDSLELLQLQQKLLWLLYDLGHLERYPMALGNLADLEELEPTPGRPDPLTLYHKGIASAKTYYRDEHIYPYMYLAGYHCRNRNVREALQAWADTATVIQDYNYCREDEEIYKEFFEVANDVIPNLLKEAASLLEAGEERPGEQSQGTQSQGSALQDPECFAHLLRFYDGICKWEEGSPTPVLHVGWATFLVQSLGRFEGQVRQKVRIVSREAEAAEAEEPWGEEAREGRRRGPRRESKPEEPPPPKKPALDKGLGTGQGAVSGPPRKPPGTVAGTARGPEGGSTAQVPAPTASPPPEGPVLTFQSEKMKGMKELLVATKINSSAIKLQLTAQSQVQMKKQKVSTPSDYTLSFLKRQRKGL
Description: Potencies of inhibitor compounds against menin/MLL binding were assessed by AlphaLISA assay using biotinylated (1) wild-type menin or (2) mutated menin (described in Nature (2012) Vol. 482, pp. 542-548) and MLL-AF9 fusion protein bearing a FLAG epitope at its C-terminus. Menin proteins were expressed in E. coli and covalently modified with biotin using EZ-Link™ Sulfo-NHS-Biotin (ThermoFisher Cat. No. 21217) according to manufacturer's protocol. MLL1-1,396 fused to AF91-92 and the C-terminal FLAG peptide was expressed in HEK293 cells and used as a lysate cleared at 21,000×g for 10 min.
Compounds (2 μL of solutions in DMSO) were dispensed in white 96-well half-area plates (Corning Cat. No. 3693) and incubated for 30 min at RT with 5 nM biotinylated menin and appropriate amount of MLL-AF9-FLAG lysate in 40 μL of 50 mM Tris-HCl buffer pH 7.4 containing 5% (v/v) DMSO, 50 mM NaCl, 0.01% (w/v) bovine serum albumin (BSA) and 1 mM DTT. To this incubation mixture, 40 μl of AlphaLISA anti-FLAG acceptor (PerkinElmer Cat. No. AL112C) and streptavidin donor (PerkinElmer Cat. No. 6760002) beads (10 μg/mL each) was added and incubation continued at RT for 60 min. Alpha (amplified luminescent proximity homogeneous assay) signal was measured on an Envision multi-label plate reader at the end of the incubation. All steps were conducted under dim fluorescent light.
These percent inhibition values were regressed against compound concentrations in the assay using four parameter logit non-linear curve fitting (XLFit, IDBS). The IC50 values were derived from the curve fitting as inflection points on the dose-response curves and are set out in Table 1 below.

[2] = molecular target: T2, menin/MLL (Gal4-Menin and MLL1-46-VP16) in HEK293 cells (Homo sapiens, UniProt O00255); assay: Mammalian cellular two-hybrid assay in HEK293 cells (Assay 2, cell assay); assay type: cell-based; conditions: Gal4-Menin/MLL1-46-VP16 two-hybrid, NanoLuc luciferase reporter, 16-18 h
T2 construct: expressed in transfected cells; host or cells: HEK293 (ATCC)
T2 sequence (P04386 1-147 partner limits assumed, species assumed, one chain of several): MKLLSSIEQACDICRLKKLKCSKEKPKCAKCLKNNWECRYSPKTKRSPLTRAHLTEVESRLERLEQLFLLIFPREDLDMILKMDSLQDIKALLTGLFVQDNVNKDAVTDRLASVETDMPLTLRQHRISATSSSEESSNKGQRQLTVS
Summary of the method: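 HEK293 cells co-transfected with Gal4-Menin, MLL1-46-VP16 and a 4×UAS secreted NanoLuc reporter, then exposed to compound for 16-18 h at 37 °C in 10% delipidated FBS (0.1% DMSO). Inhibition from secreted NanoLuc relative to DMSO and 5 μM MI-2-2, with 4-parameter IC50 fit. CellTiter-Glo measured toxicity.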

[3] = molecular target: T3, wild-type menin / MLL-AF9 fusion protein (Homo sapiens, UniProt O00255); assay: AlphaLISA menin/MLL binding assay, wild-type menin (Assay 1); conditions: biotinylated wild-type menin 5 nM, MLL-AF9-FLAG lysate
T3 construct: made in house; host or cells: E. coli (menin); HEK293 cleared lysate (MLL-AF9-FLAG)
T3 sequence (O00255 1-610): T1 sequence (O00255 1-610)
Summary of the method: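 Biotinylated wild-type or mutated menin (5 nM, E. coli-expressed) was preincubated 30 min at RT with compound and HEK293 lysate containing MLL1-1,396–AF9 1-92–FLAG. Buffer was 50 mM Tris-HCl pH 7.4, 5% DMSO, 50 mM NaCl, 0.01% BSA, 1 mM DTT. Anti-FLAG acceptor and streptavidin donor beads (10 μg/mL each) were then added for 60 min. IC50 came from a four-parameter fit of the Alpha signal inhibition.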

IC50 [1] [µM] | IC50 [2] [µM] | IC50 [3] [µM] | SMILES
0.1 to 1 |  |  | CC1(C)CN=C(N2CC3(CCN(c4ncnc5sc(CC(F)(F)F)cc45)CC3)C2)S1 [Example 10, 4-(2-(5,5-dimethyl-4,5-dihydrothiazol-2-yl)-2,7-diazaspiro[3.5]nonan-7-yl)-6-(2,2,2-trifluoroethyl)thieno[2,3-d]pyrimidine]
0.1 to 1 | ≥ 1 |  | CC(C)N1CCC2(CCN(c3ncnc4sc(CC(F)(F)F)cc34)CC2)C1 [Example 25, 4-(2-isopropyl-2,8-diazaspiro[4.5]decan-8-yl)-6-(2,2,2-trifluoroethyl)thieno[2,3-d]pyrimidine]
0.1 to 1 |  |  | CC1(C)CN=C(N2CCC3(CCN(c4ncnc5sc(CC(F)(F)F)cc45)CC3)C2)S1 [Example 27, 4-(2-(5,5-dimethyl-4,5-dihydrothiazol-2-yl)-2,8-diazaspiro[4.5]decan-8-yl)-6-(2,2,2-trifluoroethyl)thieno[2,3-d]pyrimidine]
 | 0.1 to 1 | < 0.1 | FC(F)(F)Cc1cc2c(N3CC4(CN(CC5CCCCC5)C4)C3)ncnc2s1 [Example 69, 4-(6-(cyclohexylmethyl)-2,6-diazaspiro[3.3]heptan-2-yl)-6-(2,2,2-trifluoroethyl)thieno[2,3-d]pyrimidine]
 | 0.1 to 1 | 0.1 to 1 | COC1CCC(CN2CC3(C2)CN(c2ncnc4sc(CC(F)(F)F)cc24)C3)CC1 (stereo not drawn) [Example 75, 4-(6-((4-methoxycyclohexyl)methyl)-2,6-diazaspiro[3.3]heptan-2-yl)-6-(2,2,2-trifluoroethyl)thieno[2,3-d]pyrimidine]
 | 0.1 to 1 | < 0.1 | OC1CCC(CN2CC3(C2)CN(c2ncnc4sc(CC(F)(F)F)cc24)C3)CC1 (stereo not drawn) [Example 76, 4-((6-(6-(2,2,2-trifluoroethyl)thieno[2,3-d]pyrimidin-4-yl)-2,6-diazaspiro[3.3]heptan-2-yl)methyl)cyclohexan-1-ol]
≥ 1 |  |  | CC1(C)CN=C(N2CC3(C2)CN(c2ncnc4ccc(OC(F)(F)F)cc24)C3)S1 [Example 88, 5,5-dimethyl-2-(6-(6-(trifluoromethoxy)quinazolin-4-yl)-2,6-diazaspiro[3.3]heptan-2-yl)-4,5-dihydrothiazole]
 | 0.1 to 1 | < 0.1 | Cc1c(CN2CCC3(CCN(c4ncnc5ccc(CC(F)(F)F)cc45)C3)C2)ccc2[nH]c(C#N)cc12 (stereo not drawn) [Example 90, 4-methyl-5-((7-(6-(2,2,2-trifluoroethyl)quinazolin-4-yl)-2,7-diazaspiro[4.4]nonan-2-yl)methyl)-1H-indole-2-carbonitrile]
 | 0.1 to 1 | < 0.1 | Cc1c(CN2CCC3(C2)CN(c2ncnc4sc(CC(F)(F)F)cc24)C3)ccc2[nH]c(C#N)cc12 [Example 92, 4-methyl-5-((2-(6-(2,2,2-trifluoroethyl)thieno[2,3-d]pyrimidin-4-yl)-2,6-diazaspiro[3.4]octan-6-yl)methyl)-1H-indole-2-carbonitrile]
 | ≥ 1 | < 0.1 | FC(F)(F)Cc1cc2c(N3CC4(CCN(CC5CCOCC5)C4)C3)ncnc2s1 [Example 93, 4-(6-((tetrahydro-2H-pyran-4-yl)methyl)-2,6-diazaspiro[3.4]octan-2-yl)-6-(2,2,2-trifluoroethyl)thieno[2,3-d]pyrimidine]
 | < 0.1 | < 0.1 | Cc1c(CN2CCC3(CC2)CN(c2ncnc4sc(CC(F)(F)F)cc24)C3)ccc2[nH]c(C#N)cc12 [Example 96, 4-methyl-5-((2-(6-(2,2,2-trifluoroethyl)thieno[2,3-d]pyrimidin-4-yl)-2,7-diazaspiro[3.5]nonan-7-yl)methyl)-1H-indole-2-carbonitrile hydrochloride]
 | 0.1 to 1 | < 0.1 | CS(=O)(=O)Nc1ccc(CN2CCC3(CC2)CN(c2ncnc4sc(CC(F)(F)F)cc24)C3)cc1 [Example 97, N-(4-((2-(6-(2,2,2-trifluoroethyl)thieno[2,3-d]pyrimidin-4-yl)-2,7-diazaspiro[3.5]nonan-7-yl)methyl)phenyl)methanesulfonamide]
 | 0.1 to 1 | 0.1 to 1 | FC(F)(F)Cc1cc2c(N3CC4(CCN(Cc5ccccc5)CC4)C3)ncnc2s1 [Example 98, 4-(7-benzyl-2,7-diazaspiro[3.5]nonan-2-yl)-6-(2,2,2-trifluoroethyl)thieno[2,3-d]pyrimidine]
 | ≥ 1 | 0.1 to 1 | FC(F)(F)Cc1cc2c(N3CC4(CCN(CC5CCOCC5)CC4)C3)ncnc2s1 [Example 99, 4-(7-((tetrahydro-2H-pyran-4-yl)methyl)-2,7-diazaspiro[3.5]nonan-2-yl)-6-(2,2,2-trifluoroethyl)thieno[2,3-d]pyrimidine]
 | 0.1 to 1 | < 0.1 | CS(=O)(=O)N[C@H]1CC[C@H](CN2CCC3(CC2)CN(c2ncnc4sc(CC(F)(F)F)cc24)C3)CC1 [Example 106, N-((1r,4r)-4-((2-(6-(2,2,2-trifluoroethyl)thieno[2,3-d]pyrimidin-4-yl)-2,7-diazaspiro[3.5]nonan-7-yl)methyl)cyclohexyl)methanesulfonamide]
 | 0.1 to 1 | < 0.1 | COC(=O)N[C@H]1CC[C@H](CN2CCC3(CC2)CN(c2ncnc4sc(CC(F)(F)F)cc24)C3)CC1 [Example 107, methyl ((1r,4r)-4-((2-(6-(2,2,2-trifluoroethyl)thieno[2,3-d]pyrimidin-4-yl)-2,7-diazaspiro[3.5]nonan-7-yl)methyl)cyclohexyl)carbamate]
 | 0.1 to 1 | < 0.1 | CC(C)CN1CC2(CCN(c3ncnc4sc(CC(F)(F)F)cc34)C2)C1 [Example 108, 4-(2-isobutyl-2,6-diazaspiro[3.4]octan-6-yl)-6-(2,2,2-trifluoroethyl)thieno[2,3-d]pyrimidine]
 | 0.1 to 1 | 0.1 to 1 | FC(F)(F)Cc1cc2c(N3CCC4(CN(CC5CCOCC5)C4)C3)ncnc2s1 [Example 109, 4-(2-((tetrahydro-2H-pyran-4-yl)methyl)-2,6-diazaspiro[3.4]octan-6-yl)-6-(2,2,2-trifluoroethyl)thieno[2,3-d]pyrimidine]
 | 0.1 to 1 | 0.1 to 1 | CCC(C)CN1CC2(CCN(c3ncnc4sc(CC(F)(F)F)cc34)C2)C1 (stereo not drawn) [Example 110, 4-(2-(2-methylbutyl)-2,6-diazaspiro[3.4]octan-6-yl)-6-(2,2,2-trifluoroethyl)thieno[2,3-d]pyrimidine]
 | 0.1 to 1 | < 0.1 | O=c1[nH]c2cc(CN3CCC4(CCN(c5ncnc6cc(CC(F)(F)F)sc56)C4)C3)ccc2n1CCO (stereo not drawn) [Example 119, 1-(2-hydroxyethyl)-5-((7-(6-(2,2,2-trifluoroethyl)thieno[3,2-d]pyrimidin-4-yl)-2,7-diazaspiro[4.4]nonan-2-yl)methyl)-1H-benzo[d]imidazol-2(3H)-one]
 | ≥ 1 | < 0.1 | O=c1[nH]c2ccc(CN3CCC4(CCN(c5ncnc6sc(CC(F)(F)F)cc56)C4)C3)cc2n1CCO (stereo not drawn) [Example 120]
